Assay results: patent publication US6479466B1, “Compositions for treating viral infections, and methods therefor” (University of Maryland, priority 1999, dated 2002)
Structures can show the parent of a compound that is named as a salt. Where two headings read alike, the source gives them in different places. Blank lines part the entries; values can stand above or below the compound they belong to.

What was measured:
HTLV-IIIB [1] = assay: p24 antigen in infected resting T-lymphocytes exposed to drugs for 6 days before PHA activation; type: cell-based, HIV-1; conditions: ddC 0.1 μM or AZT 4 μM in combination with RV
Description: The effect of RV and nucleoside analogues in infected resting T-lymphocytes was evaluated in the present example. Purified resting cells were used. Absence of activated lymphocytes in the preparation was determined by incubation of the cells in the presence of a monoclonal antibody directed against the low affinity IL-2 receptor CD25 (Pharmingen, San Diego, Calif.), and subsequent analysis by flow cytometry. […] Cells were infected with HTLV-IIIB at a multiplicity of infection of 10^4 TCID50/10^6 cells for 3 hours. A high multiplicity of infection (m.o.i.) was used because of a reported short half life of HIV-1 unintegrated DNA in infected resting lymphocytes. Infected cells were washed 3 times with PBS to remove virus excess and resuspended in 10% FBS RPMI medium supplemented with drugs. To ensure that any antiviral activity exerted by the drugs occurred during the resting state, drugs were removed six days after infection by washing with PBS 3 times, and cells were activated by culturing in the presence of PHA for 2 days. Cells were then cultured in IL-2 medium without drugs, and supernatants were monitored for the presence of p24 antigen. Cultures were maintained for 20 days.
Purified resting T-lymphocytes from a seronegative donor were infected with HTLV-IIIB at the high multiplicity of infection and cultured in the presence of 5 or 10 μM RV plus ddI (0, 0.25, 0.5 μM), ddC (0, 0.1 μM) or AZT (0, 4 μM) for 6 days. Concentrations used for ddC and AZT correspond to the highest, nontoxic concentration attainable in plasma of treated individuals. […] On day 6 after infection, drugs were washed away and cells were activated with PHA. The extent of viral replication was evaluated on day 6 (prior to PHA activation) and days 14 and 20 after infection. On day 6 very low amounts of p24 antigen could be detected under every condition tested, likely representing residual virus from the infecting inoculum. […] No toxicity was found by the MTT assay in uninfected culture controls treated with 5 μM RV and 0.5 μM ddI for 20 days under the same conditions.

HTLV-IIIB [2] = assay: p24 antigen production in PHA-activated PBMCs infected with HTLV-IIIB; type: cell-based, HIV-1; conditions: for IC90: read-out: IC90 (concentration of nucleoside analog that reduced the p24 antigen value of the untreated control by 90%)
Text: The antiviral activities of RV alone and in combination with nucleoside analogs were investigated in PHA-stimulated PBMCs from seronegative donors. RV, ddC, ddI, and AZT were purchased from Sigma (St. Louis, Mo.). The HIV-1 T-cell line adapted isolate HTLV-IIIB was obtained from Dr. Gallo, at the National Institutes of Health AIDS Research and Reference Reagent Program (Catalog #398, Rockville, Md.). Primary strains of HIV-1 were isolated by coculturing 10^7 patient PBMC with an equal number of PHA-stimulated PBMC from a normal donor. Titration of stocks and MT-2 phenotype determination were carried out as described (ACTG Virology Manual, NIH Pub No. 94 3828, 1994). The SI phenotype was determined by assessing viral growth and syncytia formation in the MT-2 cell line obtained from Dr. Richman at the National Institutes of Health AIDS Research and Reference Reagent Program (Catalog #237, Rockville, Md.).
Primary PBMCs were separated from whole blood of HIV seronegative donors by density centrifugation over Ficoll-Hypaque (Sigma). The culture medium consisted of RPMI supplemented with 10% fetal bovine serum (FBS), 2 mM glutamine and penicillin/streptomycin (Gibco, Grand Island, N.Y.).
For infection studies involving PBMCs, cells were stimulated with 2.5 or 10 μg/ml phytohemagglutinin (PHA; Boehringer Mannheim, Indianapolis, Ind.) for 3 days. Stimulated PBMCs were infected by incubation with virus at a multiplicity of infection of 1000 TCID50/10^6 PBMC for 2 hours. PBMCs were then washed three times with PBS and cultured in 5% CO2 at 37° C., in RPMI/10% FBS supplemented with 10 units/ml IL-2 (Boehringer Mannheim) and drugs as appropriate. PBMCs were seeded in 96-well flat-bottom plates at a density of 2×10^5 PBMCs/200 μl. Following 3 days of culture half of the medium was replaced with fresh medium containing IL-2 and drugs. After 7 days of culture, HIV-1 p24 antigen production in the culture supernatant was assayed by ELISA (Coulter, Hialeah, Fla.). The concentration of nucleoside analog, alone and in combination with resveratrol, that reduced the p24 antigen value of the untreated control by 90% (IC90) was calculated by using nonparametric regression analysis. The analysis used the median-effect equation, Fa=1/[1+(Dm/D)]^m, where D is the dose, Fa is the fraction affected, and Dm is the dose required to produce the median effect.
Cells were infected with the T-cell tropic isolate HTLV-IIIB for 2 hours, and then cultured in varying concentrations of RV with or without nucleoside analogs. Virus replication was measured by p24 antigen production by ELISA using a standard commercial kit in the culture supernatants on days 7 and 10 after infection.
Activated PBMCs infected with HTLV-IIIB were cultured in the presence of ddI plus HU (100 μM) or RV (5 and 10 μM). […] Virus production in the presence of the different drug concentrations was evaluated on day 7 after infection.

PHA-activated PBMCs = assay: 3H-thymidine incorporation (DNA synthesis) assay in proliferating PBMCs; type: cell-based, human; conditions: HU 100 μM; day 2
Description: For example, a thymidine incorporation assay using PBMC's may be carried out as follows. PBMC's are suspended, then 0.1 ml (100,000) of cells are added to each designated well of a 96-well plate. The plates are placed into a 37° C., 5% CO2, 95% humid incubator for the predetermined incubation periods—normally 2 and 5 days. At the end of the incubation period, and at a standard time prior to harvesting the plate (6-18 hours), 1.0-1.5 μCi (20 μl of 50-75 mCi/ml in complete medium) of [^3H]-labeled methyl thymidine is added to each well of the assay. The plates are then incubated for the remaining 6-18 hours. At the end of the [^3H]-thymidine pulse, the plates are harvested onto filter paper using a semi-automated multi-well harvester. The filter paper containing bound DNA may be dried using either ethanol or by moderate microwave heating. The filter paper samples are counted in a scintillation counter using standard procedures.

PHA-stimulated PBMCs = assay: MTT cell proliferation assay in PHA-stimulated PBMCs; type: cell-based, human; conditions: human, 5 days, 100 μM
Description: The effect of RV and […] on PBMC proliferation at the concentrations shown to enhance the anti-HIV effect of ddI were examined. Cellular proliferation in culture in the presence or absence of drugs was measured by commercial MTT assay, according to the manufacturer's instructions (Boehringer Mannheim). Cell viability was determined by trypan blue staining.
Proliferation was measured on PHA-stimulated PBMCs cultured in the presence of IL-2, 2 μM ddI, and RV or HU. The MTT assay was performed on days 2 and 5 (FIG. 8), and days 2 and 7 (FIG. 20) after the addition of the drugs. […] On day 5, RV at 10 μM inhibited proliferation by 30%, whereas HU inhibited proliferation by 40 to 50%, depending on the donor.
Proliferating PBMCs were cultured in the presence of RV or HU for 5 days. On day 2 and 5 an MTT assay and a ^3H-thymidine incorporation assay were performed. The MTT is a […] assay that measures cellular metabolic activity and directly correlates to the number of cells in the culture. The ^3H-thymidine incorporation assay relies on the incorporation of the radioactive nucleoside ^3H-thymidine into newly synthesized DNA. […] These differences between the effects of RV and HU were even more striking in the MTT and ^3H-thymidine incorporation assays conducted on day 5 (FIG. 12 and FIG. 13, respectively).

[3] = system: mutations 65R, 74V, 184V, and 115F in the RT gene; conditions: cited from earlier work

IC90 (HTLV-IIIB [2]; Human immunodeficiency virus 1, IIIB, PBMC, 168 h, in combination with 5 μM RV, day 7): 15 nM
IC90 (HTLV-IIIB [2]; Human immunodeficiency virus 1, IIIB, PBMC, 168 h, nucleoside analog alone, day 7): 25 nM
reduction of IC90 value (HTLV-IIIB [2]; in combination with 5 μM RV): 1.6 fold
reduction of IC90 value (HTLV-IIIB [2]; in the presence of 10 μM RV): 3.1 fold
SMILES: Cc1cn([C@H]2C[C@H](N=[N+]=[N-])[C@@H](CO)O2)c(=O)[nH]c1=O [AZT, 3′-azido-2′,3′-dideoxythymidine]
virus replication after PHA activation (HTLV-IIIB [1]): failed to suppress virus replication

SMILES: NC(=O)NO [HU, Hydroxyurea]
3H-thymidine incorporation (DNA synthesis) (PHA-activated PBMCs): much lower than the untreated control
reduction of virus production (HTLV-IIIB [2]; HU 100 μM alone, day 7): approximately 20%
inhibition at 100 µM (HTLV-IIIB [2]; Human immunodeficiency virus 1, IIIB, PBMC, 168 h, 100 μM HU combined with 0.5 μM ddI, day 7, read-out: inhibition of virus replication): > 99%
inhibition at 100 µM (HTLV-IIIB [2]; Human immunodeficiency virus 1, IIIB, PBMC, 168 h, 100 μM HU in combination with 0.25 μM ddI, day 7, read-out: inhibition of HIV-1 replication): 91%
inhibition of proliferation (PHA-stimulated PBMCs): 40 to 50%

reduction of IC90 value (HTLV-IIIB [2]; in combination with 5 μM RV): 3.3 fold
IC90 (HTLV-IIIB [2]; in combination with 5 μM RV, day 7): 80 nM
reduction of IC90 value (HTLV-IIIB [2]; in the presence of 10 μM RV): 5.4 fold
IC90 (HTLV-IIIB [2]; nucleoside analog alone, day 7): 270 nM
SMILES: Nc1ccn([C@H]2CC[C@@H](CO)O2)c(=O)n1 [ddC, 2′,3′-dideoxycytosine]
virus replication after PHA activation (HTLV-IIIB [1]): failed to suppress virus replication

SMILES: Nc1nc(NC2CC2)c2ncn([C@H]3C=C[C@@H](CO)C3)c2n1 [abacavir, (1C, CiS)-4-(2-amino-6-(cyclopropylamino)—9H-purin-9-yL)-2-cyclopentene-1-methanol sulfate (salt) (2:1)]
resistance to the drug ([3]; mutants harboring 2 or 3 of these mutations): approximately 10 fold
decrease in susceptibility ([3]; single mutations 65R, 74V, 184V, and 115F): 2-3 fold
